In this data set the test system is human mitochondrial deformylase. The data set can be described thus: Expression of mitochondrial deformylase by Western blotting in antisense-treated HCT 116 cells. The data set is classed as cell-based. To be noted: 10 micromolar once per day for seven days. On the technique in general: A western blot detects proteins with antibodies after separation by electrophoresis.
For the substance “5′-AAAATGCAGGTAAGCATGTGAAAA-3′ [oligonucleotide (2)]”, the “expression of the mitochondrial deformylase as determined by Western blotting” value (from here on “expression”) is recorded as “significantly reduced expression”.
In the case of “5′-CAGCGATTTAAATACGGAACAAGG-3′ [oligonucleotide (1)]”, the “expression” value was “significantly reduced expression”.
Consider “5′-TCAACTGACTAGATGTACATGGAC-3′ (DNA TCAACTGACTAGATGTACATGGAC; chemistry not given here) [oligonucleotide (3), reference compound]”, for which the “expression” value was “not observed”.

Values taken from patent US20030003488A1, “Regulation of human mitochondrial deformylase” (priority 1999, published 2003).
